In patent publication US20080269251A1, “Substituted Pyrazinone Derivatives as Alpha2C-Adrenoreceptor Antagonists” (priority 2005, published 2008):

Tests used:
5HT-transporter = biological target: T1, 5HT-transporter (Homo sapiens, UniProt P31645); experiment: Binding experiment for the 5HT-transporter ([3H]paroxetine, human platelet membranes); conditions: [3H]paroxetine 0.5 nM, 60 min at 25° C.; for IC50: read-out: h-5HTT pIC50 (converted)
T1 construct: Human platelet membranes (Oceanix Biosciences Corporation, Hanover, Md., USA) were thawed; tissue Oceanix Biosciences Corporation, Hanover, Md., USA; host or cells: human platelet membranes
Summary of the method: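 Competition binding of [3H]paroxetine to human platelet membranes in Tris-HCl 50 mM with 120 mM NaCl and 5 mM KCl; bound radioligand separated by GF/B filtration and counted.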

[1] = biological target: T2, human adrenergic-α2A receptor (Homo sapiens, UniProt P08913); experiment: Radioligand binding experiment for hα2A-adrenergic receptor ([3H]raulwolscine); conditions: [3H]raulwolscine 1 nM, 60 minutes at 25° C.; for IC50: read-out: h-α2A pIC50 (converted)
T2 construct: expressed in transfected cells; host or cells: CHO cells, stably transfected; membrane preparation
T2 sequence (P08913 1-465): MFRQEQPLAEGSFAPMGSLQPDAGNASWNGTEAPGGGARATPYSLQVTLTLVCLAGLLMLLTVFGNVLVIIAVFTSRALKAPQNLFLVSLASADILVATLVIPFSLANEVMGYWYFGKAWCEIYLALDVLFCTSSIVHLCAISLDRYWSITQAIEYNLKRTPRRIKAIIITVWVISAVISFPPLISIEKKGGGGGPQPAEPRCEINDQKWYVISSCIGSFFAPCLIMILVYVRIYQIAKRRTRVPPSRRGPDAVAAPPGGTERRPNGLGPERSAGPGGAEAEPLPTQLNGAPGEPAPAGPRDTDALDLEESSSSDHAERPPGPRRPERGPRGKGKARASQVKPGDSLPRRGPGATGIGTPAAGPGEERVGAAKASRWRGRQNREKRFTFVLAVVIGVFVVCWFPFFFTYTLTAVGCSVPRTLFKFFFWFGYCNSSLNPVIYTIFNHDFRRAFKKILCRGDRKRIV
Summary of the method: (§1)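 CHO membranes expressing human α2A or α2C receptors were incubated with 1 nM [^3H]raulwolscine for 60 min at 25° C in glycylglycine 25 mM, pH 8.0, then filtered. Nonspecific binding was defined with 1 μM oxymetazoline for α2A and 1 μM spiroxatrine for α2C. pIC50 came from sigmoidal competition curves.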

[2] = biological target: T3, human adrenergic-α2C receptor (Homo sapiens, UniProt P18825); experiment: Radioligand binding experiment for hα2C-adrenoceptor ([3H]raulwolscine); conditions: [3H]raulwolscine 1 nM, 60 minutes at 25° C.; for IC50: read-out: h-α2C pIC50 (converted)
T3 construct: expressed in transfected cells; host or cells: CHO cells, stably transfected; membrane preparation
T3 sequence (P18825 1-462): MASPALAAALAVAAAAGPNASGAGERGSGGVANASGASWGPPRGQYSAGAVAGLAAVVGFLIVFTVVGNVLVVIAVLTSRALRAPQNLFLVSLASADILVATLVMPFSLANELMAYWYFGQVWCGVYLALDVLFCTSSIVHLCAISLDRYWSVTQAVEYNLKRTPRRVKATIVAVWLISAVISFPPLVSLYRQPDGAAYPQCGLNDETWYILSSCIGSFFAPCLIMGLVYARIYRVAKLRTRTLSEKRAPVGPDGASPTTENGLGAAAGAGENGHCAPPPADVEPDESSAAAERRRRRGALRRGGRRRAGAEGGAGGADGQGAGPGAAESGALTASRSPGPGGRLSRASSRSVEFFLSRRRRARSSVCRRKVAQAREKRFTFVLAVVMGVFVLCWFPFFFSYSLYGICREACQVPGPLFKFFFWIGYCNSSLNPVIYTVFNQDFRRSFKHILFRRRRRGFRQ
Summary of the method: as §1

T1 sequence (P31645 whole entry): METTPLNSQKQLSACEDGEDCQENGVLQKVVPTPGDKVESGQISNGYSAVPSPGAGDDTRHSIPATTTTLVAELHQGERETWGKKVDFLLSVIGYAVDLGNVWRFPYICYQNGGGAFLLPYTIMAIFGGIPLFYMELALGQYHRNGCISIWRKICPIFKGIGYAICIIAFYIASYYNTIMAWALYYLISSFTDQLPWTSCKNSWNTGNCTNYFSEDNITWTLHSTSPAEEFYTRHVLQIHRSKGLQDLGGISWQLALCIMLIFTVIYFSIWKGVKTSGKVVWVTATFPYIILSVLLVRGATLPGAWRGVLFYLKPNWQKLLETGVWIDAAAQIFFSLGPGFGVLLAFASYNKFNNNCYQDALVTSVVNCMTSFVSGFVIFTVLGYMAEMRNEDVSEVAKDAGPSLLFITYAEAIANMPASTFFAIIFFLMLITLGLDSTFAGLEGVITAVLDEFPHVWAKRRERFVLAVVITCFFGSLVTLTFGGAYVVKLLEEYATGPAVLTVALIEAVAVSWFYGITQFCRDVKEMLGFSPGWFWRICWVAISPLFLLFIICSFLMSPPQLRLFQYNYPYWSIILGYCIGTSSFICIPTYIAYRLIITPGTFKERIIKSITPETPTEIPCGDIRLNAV

## CCCCNc1cccc(-n2ccnc(NC3CCN(Cc4ccc5ccccc5c4)CC3)c2=O)c1 [1-05]
5HT-transporter
  IC50: 0.02 µM
[1]
  IC50: 0.0398 µM
other
  melting point: 117.5 °C
[2]
  IC50: 0.0158 µM

## CCCNC(=O)c1ccc(-n2ccnc(NC3CCN(Cc4ccc5ccccc5c4)CC3)c2=O)cc1 [1-09]
5HT-transporter
  IC50: 0.02 µM
[1]
  IC50: 0.2 µM
other
  melting point: 210.1 °C
[2]
  IC50: 0.0398 µM

## CCCC(=O)NCc1ccc(-n2ccnc(NC3CCN(Cc4ccc5ccccc5c4)CC3)c2=O)cc1F [1-26]
5HT-transporter
  IC50: 0.00794 µM
[1]
  IC50: 0.398 µM
other
  melting point: 95 °C
[2]
  IC50: 0.00794 µM

## O=c1c(NC2CCN(Cc3ccc4ccccc4c3)CC2)nccn1-c1ccc(NCC2CCCO2)cc1 (stereo not shown) [1-78]
5HT-transporter
  IC50: 0.0158 µM
[1]
  IC50: 0.2 µM
other
  melting point: > 300 °C
[2]
  IC50: 0.01 µM

## O=c1c(NC2CCN(Cc3ccc4ccccc4c3)CC2)nccn1-c1ccc(CNCC2CCCO2)cc1 (stereo not shown) [1-79a]
5HT-transporter
  IC50: 0.00316 µM
[1]
  IC50: 0.158 µM
other
  melting point: > 300 °C
[2]
  IC50: 0.00501 µM

## O=C(NCCN1CCCCC1)c1ccc(-n2ccnc(NC3CCN(Cc4ccc5ccccc5c4)CC3)c2=O)cc1 [1-88]
5HT-transporter
  IC50: 0.00316 µM
[1]
  IC50: 0.0794 µM
other
  melting point: 172.3 °C
[2]
  IC50: 0.0251 µM

## O=C(NCCN1CCOCC1)c1ccc(-n2ccnc(NC3CCN(Cc4ccc5ccccc5c4)CC3)c2=O)cc1 [1-91]
5HT-transporter
  IC50: 0.0158 µM
[1]
  IC50: 0.316 µM
other
  melting point: 271 °C
[2]
  IC50: 0.0631 µM

## O=c1c(NC2CCN(Cc3ccc4ccccc4c3)CC2)nccn1-c1ccc(NCCN2CCOCC2)cc1 [1-92]
5HT-transporter
  IC50: 0.0126 µM
[1]
  IC50: 0.316 µM
other
  melting point: 195.3 °C
[2]
  IC50: 0.0158 µM

## O=C(CCN1CCOCC1)Nc1ccc(-n2ccnc(NC3CCN(Cc4ccc5ccccc5c4)CC3)c2=O)cc1 [1-97]
5HT-transporter
  IC50: 0.0158 µM
[1]
  IC50: 0.316 µM
other
  melting point: 183.4 °C
[2]
  IC50: 0.0126 µM

## C=CCSc1ncccc1C(=O)NCc1ccc(-n2ccnc(NC3CCN(Cc4ccc5ccccc5c4)CC3)c2=O)cc1 [1-102]
5HT-transporter
  IC50: 0.0158 µM
[1]
  IC50: 0.316 µM
other
  melting point: 117.7 °C
[2]
  IC50: 0.0631 µM

## O=C(c1ccc(-n2ccnc(NC3CCN(Cc4ccc5ccccc5c4)CC3)c2=O)cc1)N1CCOCC1 [2-08]
5HT-transporter
  IC50: 0.0631 µM
[1]
  IC50: 0.1 µM
other
  melting point: 271.4 °C
[2]
  IC50: 0.0251 µM

## O=c1c(NC2CCN(Cc3ccc4ccccc4c3)CC2)nccn1CCN1CCCCC1 [2-10]
5HT-transporter
  IC50: 0.158 µM
[1]
  IC50: 0.2 µM
other
  melting point: 161.2 °C
[2]
  IC50: 0.0251 µM

## O=C1c2ccccc2C(=O)N1C/C=C/Cn1ccnc(NC2CCN(Cc3ccc4ccccc4c3)CC2)c1=O [2-18]
5HT-transporter
  IC50: 0.00398 µM
[1]
  IC50: 0.0794 µM
other
  melting point: 172.8 °C
[2]
  IC50: 0.00398 µM

## O=C1c2ccccc2C(=O)N1CCCn1ccnc(NC2CCN(Cc3ccc4ccccc4c3)CC2)c1=O [2-19]
5HT-transporter
  IC50: 0.0126 µM
[1]
  IC50: 0.126 µM
other
  melting point: 76.5 °C
[2]
  IC50: 0.00398 µM

## O=C1c2ccccc2C(=O)N1CC#CCn1ccnc(NC2CCN(Cc3ccc4ccccc4c3)CC2)c1=O [2-20]
5HT-transporter
  IC50: 0.0158 µM
[1]
  IC50: 0.398 µM
other
  melting point: 96.3 °C
[2]
  IC50: 0.00794 µM

## COC(=O)c1ccc(-n2ccnc(NC3CCN(Cc4ccc5ccccc5c4)CC3)c2=O)cc1 [3-05]
5HT-transporter
  IC50: 0.0398 µM
[1]
  IC50: 0.1 µM
other
  melting point: 196.5 °C
[2]
  IC50: 0.0794 µM

## O=c1c(NC2CCN(Cc3ccc4ccccc4c3)CC2)nccn1-c1ccc(COCCN2CCOCC2)cc1 [3-13]
5HT-transporter
  IC50: 0.00501 µM
[1]
  IC50: 0.2 µM
other
  melting point: 153.9 °C
[2]
  IC50: 0.00398 µM

## O=c1c(NC2CCN(Cc3ccc4ccccc4c3)CC2)nccn1-c1ccsc1 [6-05]
5HT-transporter
  IC50: 0.0398 µM
[1]
  IC50: 0.126 µM
other
  melting point: 152.8 °C
[2]
  IC50: 0.0398 µM

## O=c1c(NC2CCN(Cc3ccc4ccccc4c3)CC2)nccn1-c1cccnc1 [6-06]
5HT-transporter
  IC50: 0.1 µM
[1]
  IC50: 0.398 µM
other
  melting point: > 300 °C
[2]
  IC50: 0.0501 µM

## COc1ccc(Cn2c(-c3cccc(CN4CCN(C)CC4)c3)c(Cl)nc(NC3CCN(Cc4ccc5ccccc5c4)CC3)c2=O)cc1 [8-14]
5HT-transporter
  IC50: 0.0501 µM
[1]
  IC50: 0.501 µM
[2]
  IC50: 0.126 µM

## O=C1c2ccccc2C(=O)N1CCCn1ccnc(N2CCN(Cc3ccc4ccccc4c3)CC2)c1=O [9-01]
5HT-transporter
  IC50: 0.0316 µM
[1]
  IC50: 0.631 µM
[2]
  IC50: 0.0794 µM

## O=C(O)C(F)(F)F.O=C1c2ccccc2C(=O)N1CCCn1ccnc(NCCN2CCN(Cc3ccc4ccccc4c3)CC2)c1=O [9-02]
5HT-transporter
  h-5HTT pIC50: 7.3
[1]
  h-α2A pIC50: 6.6
[2]
  h-α2C pIC50: 7.5

## O=C(CCN(c1nccn(CCC(=O)c2ccccc2)c1=O)C1CCN(Cc2ccc3ccccc3c2)CC1)c1ccccc1 [9-03]
5HT-transporter
  IC50: 0.0398 µM
[1]
  IC50: 0.251 µM
[2]
  IC50: 0.0398 µM

## O=C(CCn1ccnc(NC2CCN(Cc3ccc4ncccc4c3)CC2)c1=O)c1ccccc1 [9-05]
5HT-transporter
  IC50: 0.0251 µM
[1]
  IC50: 1.58 µM
[2]
  IC50: 0.794 µM

## O=c1c(NC2CCN(Cc3ccc4ncccc4c3)CC2)nccn1CCCOCc1ccccc1 [9-06]
5HT-transporter
  IC50: 0.0398 µM
[1]
  IC50: 1.26 µM
[2]
  IC50: 0.316 µM

## O=C1c2ccccc2C(=O)N1CCCn1ccnc(NC2CCN(Cc3ccc4ncccc4c3)CC2)c1=O [9-07]
5HT-transporter
  IC50: 0.0501 µM
[1]
  IC50: 1.58 µM
[2]
  IC50: 0.0631 µM

## O=C(CCN(c1nccn(CCC(=O)c2ccccc2)c1=O)C1CCN(Cc2ccc3ccccc3n2)CC1)c1ccccc1 [9-09]
5HT-transporter
  IC50: 0.126 µM
[1]
  IC50: 0.316 µM
[2]
  IC50: 0.0501 µM

## O=c1c(NC2CCN(Cc3ccc4ncccc4c3)CC2)nccn1CCCOc1ccccc1 [9-12]
5HT-transporter
  IC50: 0.794 µM
[1]
  IC50: 0.501 µM
[2]
  IC50: 0.0631 µM

## O=c1[nH]ccnc1NC1CCN(Cc2ccc3ncccc3c2)CC1 [9-13]
5HT-transporter
  IC50: > 10 µM
[1]
  IC50: 3.16 µM
[2]
  IC50: 0.398 µM

## CCOC(=O)CCCCn1ccnc(NC2CCN(Cc3ccc4ccccc4n3)CC2)c1=O [9-14]
5HT-transporter
  IC50: 3.98 µM
[1]
  IC50: 0.631 µM
[2]
  IC50: 0.126 µM

## O=c1c(NC2CCN(Cc3ccc4ccccc4n3)CC2)nccn1CCOc1ccccc1 [9-15]
5HT-transporter
  IC50: 0.631 µM
[1]
  IC50: 0.631 µM
[2]
  IC50: 0.158 µM

## O=C1c2ccccc2C(=O)N1CC#CCn1ccnc(NC2CCN(Cc3ccc4ccccc4n3)CC2)c1=O [9-18]
5HT-transporter
  IC50: 1 µM
[1]
  IC50: 2 µM
[2]
  IC50: 0.0631 µM

## O=C(CCN(c1nccn(CCC(=O)c2ccccc2)c1=O)C1CCN(Cc2cnc3ccccc3c2)CC1)c1ccccc1 [9-20]
5HT-transporter
  IC50: 0.398 µM
[1]
  IC50: 3.16 µM
[2]
  IC50: 0.398 µM

## CCOC(=O)CCCCn1ccnc(NC2CCN(Cc3cnc4ccccc4c3)CC2)c1=O [9-21]
5HT-transporter
  IC50: 2 µM
[1]
  IC50: 1.26 µM
[2]
  IC50: 0.2 µM

## NCc1ccc(Cn2ccnc(N3CCN(Cc4cccc5ccccc45)CC3)c2=O)cc1 [9-23]
5HT-transporter
  IC50: 1.26 µM
[1]
  IC50: 0.398 µM
[2]
  IC50: 1 µM

## CN(C)C(=O)Cn1ccnc(N2CCN(Cc3cccc4ccccc34)CC2)c1=O [9-24]
5HT-transporter
  IC50: > 10 µM
[1]
  IC50: 5.01 µM
[2]
  IC50: 0.398 µM

## CC(C)(C)OC(=O)NCc1ccc(Cn2ccnc(N3CCN(Cc4cccc5ccccc45)CC3)c2=O)cc1 [9-25]
5HT-transporter
  IC50: 1.26 µM
[1]
  IC50: 0.631 µM
[2]
  IC50: 0.398 µM

## O=c1c(N2CCN(Cc3cccc4ccccc34)CC2)nccn1Cc1ccccc1 [9-26]
5HT-transporter
  IC50: 2.51 µM
[1]
  IC50: 0.501 µM
[2]
  IC50: 1 µM

## O=C1c2ccccc2C(=O)N1CCCn1ccnc(NC2CCN(Cc3cnc4ccccc4c3)CC2)c1=O [9-27]
5HT-transporter
  IC50: 0.631 µM
[1]
  IC50: > 10 µM
[2]
  IC50: 0.794 µM

## O=C(CCN(c1nccn(CCC(=O)c2ccccc2)c1=O)C1CCN(Cc2ccnc3ccccc23)CC1)c1ccccc1 [9-28]
5HT-transporter
  IC50: 0.2 µM
[1]
  IC50: > 10 µM
[2]
  IC50: 0.631 µM

## O=c1c(N2CCN(Cc3ccc4ccccc4n3)CC2)nccn1Cc1ccccc1 [9-29]
5HT-transporter
  IC50: > 10 µM
[1]
  IC50: 0.631 µM
[2]
  IC50: 0.501 µM
